In patent US5928933A, “Process for the enzymatic resolution of N-(alkoxycarbonyl)-4-ketoproline alkyl esters or N-(alkoxycarbonyl)-4-hydroxyproline alkyl esters using Candida antarctica lipase B” (priority 1998, dated 1999):
Where two headings read alike, the source gives them in different places.

What was measured:
Format in all cases: biochemical
[1] = target: T1, Candida antartica lipase fraction B (CALB) (Moesziomyces antarcticus, UniProt P41365); settings: for resolution with high enantioselectivity: CALB or any of the other commercially-available esterases, lipases, and proteases screened (Examples 7, 8); for isomer remaining: candida antartica lipase b, 19000 µM, pH 5
T1 construct: purchased Boehringer Mannheim CHIRAZYME L-2
T1 sequence (P41365 26-342): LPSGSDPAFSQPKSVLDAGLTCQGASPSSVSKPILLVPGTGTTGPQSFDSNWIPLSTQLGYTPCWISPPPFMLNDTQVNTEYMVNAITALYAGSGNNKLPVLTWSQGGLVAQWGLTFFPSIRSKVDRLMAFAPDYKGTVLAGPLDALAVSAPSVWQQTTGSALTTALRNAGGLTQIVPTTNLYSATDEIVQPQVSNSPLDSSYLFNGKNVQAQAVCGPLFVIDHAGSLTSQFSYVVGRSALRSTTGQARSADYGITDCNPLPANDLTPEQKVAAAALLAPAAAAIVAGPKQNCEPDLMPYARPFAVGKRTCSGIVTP
Protocol: Reacting a 0.10M solution of the 1:1 mixture of KDP(MEMC) and KLP(MEMC) in 0.20M succinate (pH 6.0) at 25° C. for 5 h with approximately 1-3 mg/mL of Candida antartica lipase fraction B (CALB) produced a 95% ee (substrate) of KDP(MEMC) at 51% conversion. […] The calculated enantioselectivity (E) at 51% conversion was E=81.
The enzymatic hydrolysis reaction of KDP(MEMC) and KLP(MEMC) using CALB (described above) was repeated at pH 5.0 in 0.20M acetate buffer (Example 2), and a 100% ee (substrate) of the D-isomer was obtained at 51% conversion (E=>1000); the reaction rate was approximately 50% of the rate at pH 6.0, and the slight loss of the D-isomer at pH 5.0 was again observed in the absence of added enzyme (95% recovery at pH 5.0 after 24 h with no enzyme).
The procedure described in Example I was repeated using Candida antartica lipase fraction B (CALB), except that the reaction was run in 0.200M sodium cetate (pH 5.0) instead of the 0.20M sodium succinate buffer (pH 6.0) used for Candida antartica lipase fraction B in Example 1. Aqueous solutions (5.0 mL) containing varying concentrations of a racemic mixture of N-(methoxycarbonyl)-4-keto-D,L-proline methyl ester and CALB were mixed at 15° C., 25° C., 35° C. or 45° C.
An aqueous solution (5.0 mL) containing 25 mM N-(methoxycarbonyl)-4-keto-Dproline methyl ester and 25 mM N-(methoxycarbonyl)-4-keto-L-proline methyl ester in 0.200M sodium acetate (pH 5.0) was mixed with 2.5 g of immobilized Candida antartica lipase fraction B (Boehringer Mannheim, CHIRAZYME® L-2, c.-f., C2, lyo.) at 25° C. […] The dichloromethane extract was then analyzed by chiral gas chromatography on a Chiraldex G-TA column (Advanced Separation Technologies, Inc., 50 m×0.32 mm ID) to determine the amounts of the unreacted D- and L-isomers. After 31 h, an 85% enantiomeric excess of N-(methoxycarbonyl)-4-keto-D-proline methyl ester was obtained at 41% conversion of the racemic mixture.
A 200 mL aqueous solution containing 0.200M sodium acetate (pH 5.0), 1.3325 g of Candida antartica lipase fraction B, and 4.02 g of racemic N-(methoxycarbonyl)-4-keto-D,L-proline methyl ester (100 mM) was stirred at 25° C. After 24 h, an 96% enantiomeric excess of N-(methoxycarbonyl)-4-keto-D-proline methyl ester was obtained at 50% conversion of the racemic mixture. The reaction mixture was filtered using a 10,000 MWCO membrane filter (Amicon) to remove the enzyme catalyst, and the filtrate extracted with three 200 mL portions of dichloromethane. The combined organic extracts were dried over magnesium sulfate, filtered, and the dichloromethane removed from the filtrate by rotary evaporation at reduced pressure. Residual dichloromethane was removed from the resulting colorless oil at high vacuum (50 millitorr) to produce N-(methoxycarbonyl)-4-keto-D-proline methyl ester as a white solid (1.99 g, 99% isolated yield, 99% purity (by GC), 97% ee).
An aqueous solution (2.0 mL) containing 50 mM N-(ethoxycarbonyl)-4-keto-D-proline ethyl ester and 50 mM N-(ethoxycarbonyl)-4-keto-L-proline ethyl ester in 0.200M sodium acetate (pH 5.0) and 30 mg/mL of Candida antartica lipase fraction B was mixed at 25° C. […] The dichloromethane extract was then analyzed by chiral gas chromatography on a Chiraldex G-TA column (Advanced Separation Technologies, Inc., 50 m×0.32 mm ID) to determine the amounts of the unreacted D- and L-isomers. After 24 h, a 100% enantiomeric excess of N-(ethoxycarbonyl)-4-keto-D-proline ethyl ester was obtained at 51% conversion of the racemic mixture.
An aqueous solution (1.0 mL) containing 19 mM of N-(2-phenylacetyl)-4-keto-D-proline methyl ester and 19 mM of N-(2-phenylacetyl)-4-keto-L-proline methyl ester in 0.200M sodium acetate (pH 5.0) and 25 mg/mL of Candida antartica lipase fraction B was mixed at 25° C. […]

[2] = Enzyme screens for resolution of diastereomeric mixture CHDP(MEMC)/THLP(MEMC) (Example 9); settings: 0.050M each isomer, 5 h or 24 h, 5.0 to 50 mg/mL enzyme, 25° C.
Protocol: (§1) An aqueous solution (1.0 mL) containing 0.050M N-(methoxycarbonyl)-trans-4-hydroxy-L-proline methyl ester and 0.050M N-(methoxycarbonyl)-cis-4-hydroxy-D-proline methyl ester in 0.100M potassium phosphate (pH 7.0) was mixed with 5.0 to 50 mg/mL of commercial enzyme preparations (listed in the table below) at 25° C. The reactions were analyzed after 5 h or 24 h by removal of a 0.200 mL sample and mixing with an equivalent volume of 0.100M propionic acid (HPLC internal standard) in water. The resulting solution was filtered through a 10K molecular weight cut-off filter to remove the enzyme and the filtrate analyzed by high pressure liquid chromatography on a HPX-87H column (Bio-Rad, 30 cm×7.8 mm) to determine the percent conversion of each isomer of the diastereomeric mixture, and the diastereomeric excess of the N-(methoxycarbonyl)-cis-4-hydroxy-D-proline methyl ester.

[3] = Enzyme screens for resolution of racemic N-(methoxycarbonyl)-4-keto-D,L-proline methyl ester (Example 1); settings: 0.100M racemate, 5.0 to 50 mg/mL enzyme, 25° C., optimum
Protocol: An aqueous solution (1.0 mL) containing 0.100M racemic N-(methoxycarbonyl)-4-keto-D,L-proline methyl ester in either 0.20M sodium succinate (pH 6.0) or 0.20M sodium acetate (pH 5.0) was mixed with 5.0 to 50 mg/mL of commercial enzyme preparations (listed in the table below) at 25° C. […] The dichloromethane extract was then analyzed by chiral gas chromatography on a Chiraldex G-TA column (Advanced Separation Technologies, Inc., 50 m×0.32 mm ID) to determine the percent conversion of the racemate, and the enantiomeric excess of the N-(methoxycarbonyl)-4-keto-D-proline methyl ester.

[4] = Enzyme screens for resolution of diastereomeric mixture CHLP(MEMC)/THLP(MEMC) (Example 13); settings: 0.050M each isomer, 5 h, 5.0 to 50 mg/mL enzyme, 25° C.
Protocol: as §1, with “solution” for “solution (1.0 mL)”, “N-(methoxycarbonyl)-cis-4-hydroxy-L-proline” for “N-(methoxycarbonyl)-cis-4-hydroxy-D-proline”, “5” for “5 h or 24”, “of” for “of each isomer of”

[5] = 19 mM each isomer, 25 mg/mL CALB, pH 5.0, 25° C., 28 h
[6] = 50 mM each isomer, 30 mg/mL CALB, pH 5.0, 25° C., 24 h
[7] = 0.10M 1:1 mixture, 0.20M succinate pH 6.0, 25° C., 5 h, approximately 1-3 mg/mL CALB
[8] = 100 mM racemate, 10 mg/mL CALB, 25° C., 24 h, pH 5.0
[9] = 100 mM racemate, 20 mg/mL CALB, 45° C., 6 h, pH 5.0
[10] = 200 mM racemate, 6.7 mg/mL CALB, 35° C., 29 h, pH 5.0
[11] = 300 mM racemate, 31 mg/mL CALB, 45° C., 23 h, pH 5.0
[12] = 200 mL, 100 mM racemate, 1.3325 g CALB, pH 5.0, 25° C., 24 h
[13] = immobilized CALB 2.5 g in 5.0 mL, 25 mM each isomer, pH 5.0, 25° C., 31 h
[14] = 0.100M potassium phosphate pH 7.0

COC(=O)C1CC(=O)CN1C(=O)Cc1ccccc1 (racemic) [N-(2-phenylacetyl)-4-keto-D,L-proline methyl ester]
conversion of the racemic mixture [1, 5]: 38%
enantiomeric excess of the D-isomer [1, 5]: 55%

COC(=O)C1CC(=O)CN1C(C)=O (racemic) [N-(acetyl)-4-keto-D,L-proline methyl ester]
resolution with high enantioselectivity [1]: could not be resolved with high enantioselectivity

CCOC(=O)C1CC(=O)CN1C(=O)OCC (racemic) [N-(ethoxycarbonyl)-4-keto-D,L-proline ethyl ester]
conversion of the racemic mixture [1, 6]: 51%
enantiomeric excess of the D-isomer (KDP(EEEC)) [1, 6]: 100%

COC(=O)C1CC(OC)(OC)CN1C(=O)OC (racemic) [N-(methoxycarbonyl)-4,4-dimethoxy-D,L-proline methyl ester]
resolution with high enantioselectivity [1]: could not be resolved with high enantioselectivity

COC(=O)C1CC(=O)CN1C(=O)OC (racemic) [N-(methoxycarbonyl)-4-keto-D,L-proline methyl ester]
conversion [1, 7]: 51%
ee (substrate) of KDP(MEMC) [1, 7]: 95%
ee D-isomer [1, 8]: 100%
racemate conv. [1, 8]: 51%
ee D-isomer ([1]; 100 mM racemate, 20 mg/mL CALB, 15° C., 24 h, pH 5.0): 100%
racemate conv. ([1]; 100 mM racemate, 20 mg/mL CALB, 15° C., 24 h, sodium acetate pH 5.0): 51%
ee D-isomer [1, 9]: 100%
racemate conv. [1, 9]: 50%
conversion ([1]; 0.20M acetate buffer pH 5.0): 51%
ee (substrate) of the D-isomer ([1]; 0.20M acetate buffer pH 5.0): 100%
ee D-isomer [1, 10]: 97%
racemate conv. [1, 10]: 51%
ee D-isomer [1, 11]: 99%
racemate conv. [1, 11]: 48%
conversion of the racemic mixture [1, 12]: 50%
enantiomeric excess of the D-isomer [1, 12]: 96%
enantioselectivity (E) ([1]; at 51% conversion, pH 5.0): > 1000
calculated enantioselectivity (E) ([1]; at 51% conversion, pH 6.0): 81
conversion of the racemic mixture [1, 13]: 41%
enantiomeric excess of the D-isomer [1, 13]: 85%
reaction rate relative to the rate at pH 6.0 ([1]; pH 5.0): approximately 50%

COC(=O)[C@H]1CC(=O)CN1C(=O)Cc1ccccc1 [N-(2-phenylacetyl)-4-keto-D-proline methyl ester]
isomer remaining ([1]; 28 h): 97%

COC(=O)[C@@H]1CC(=O)CN1C(=O)Cc1ccccc1 [N-(2-phenylacetyl)-4-keto-L-proline methyl ester]
isomer remaining ([1]; 28 h): 28%

B1: protease, type VIII: commercial enzyme preparation, source Bacillus licheniformis (protein, UniProt P00780 106-379, looked up)
Subtilisin Carlsberg: AQTVPYGIPLIKADKVQAQGFKGANVKVAVLDTGIQASHPDLNVVGGASFVAGEAYNTDGNGHGTHVAGTVAALDNTTGVLGVAPSVSLYAVKVLNSSGSGSYSGIVSGIEWATTNGMDVINMSLGGASGSTAMKQAVDNAYAKGVVVVAAAGNSGSSGNTNTIGYPAKYDSVIAVGAVDSNSNRASFSSVGAELEVMAPGAGVYSTYPTNTYATLNGTSMASPHVAGAAALILSKHPNLSASQVRNRLSSTATYLGSSFYYGKGLINVEAAAQ
conv. (percent conversion of the diastereomeric mixture) [2, 14]: 16%
% de (diastereomeric excess of the D-isomer, CHDP(MEMC)) ([2]; pH 7.0): 16%
conv. (percent conversion of the racemate) ([3]; 0.20M sodium succinate pH 6.0, 5 h or 0.20M sodium acetate pH 5.0, 24 h): 32%
% ee (enantiomeric excess of the D-isomer; L-isomer with porcine liver esterase) ([3]; pH 6.0, 5 h or pH 5.0, 24 h): 23%
conv. (percent conversion of the diastereomeric mixture) [4, 14]: 4%
% de (diastereomeric excess of the cis-L-isomer) ([4]; pH 7.0): 6%
